Results taken from paper PMC9468151, “Identification of a binding site on soluble RANKL that can be targeted to inhibit soluble RANK-RANKL interactions and treat osteoporosis” (Nature Communications, 2022).
Values joined by “and” are separate entries in the source; they are usually repeats but may differ in a detail not shown here. Equal values may be shown once. Read-outs that look alike come from different tables or passages of the source.

Columns and labels:
[1] = tested on: human sRANKL and human OPG; assay: In vitro pull-down assay of sRANKL binding to OPG
Procedure: To evaluate whether S3-15 affects the binding of sRANKL or mRANKL to OPG, we did the pull-down assay.
sRANKL-OPG: 200 ng human sRANKL with his-sumo tag was incubated with Ni gel at 4 °C for 10 min. Then the Ni gel was washed with PBS for 3 times. 500 μL PBS that contains 100 ng Fc tag human OPG. Then S3-15 was treated in different concentration (0, 10, 1 and 0.3 μM). The mixtures were incubating at 4 °C for 30 min. Washed with PBS for 3 times. 500 μL 1% Triton X-100 in PBS was then added at 4 °C. The concentration of OPG was tested by OPG ELISA kit (USCN, China).

[2] = tested on: OVX mice; assay: Mice peripheral blood T lymphocyte subsets analysis; type: in vivo, mouse; settings: OVX mice + S3-15 4 weeks, individual animals
Description: In order to study the effect of S3-15 on the immune system, after 4 weeks of S3-15 treatment, orbital venous blood with EDTA-anticoagulated was collected for T lymphocyte subsets analysis in osteoporosis mice. We used flow cytometric to determinate T lymphocyte subsets according to the guidelines for Flow Cytometric of Beckman Coulter, FC500. Cells were stained according to manufacturer’s instruction of PE-Cyanine7 anti-Human CD8a and PE anti-Human CD4 antibodies (Tonbo Biosciences). Data analyzing was performed by using CXP software (Beckman Coulter, Supplementary Fig. 9).

[3] = tested on: T lymphocyte; assay: T lymphocyte cell proliferation assay (CFSE, CD4+/CD8+ flow cytometry); type: cell-based, human
Procedure: T lymphocyte cell proliferation assay was performed according to a reported method[58] with some modification. Briefly, 5 × 10^6 cells /mL cells were stained 2.5 μM CFSE (Tonbo Biosciences) and incubated at 37 °C for 12 min. Then washed and discarded the supernatant and adjusted the CFSE stained cell to 1.75 × 10^6 cells /mL. Cells were diluted in 1640 completed medium containing 5 μg/mL anti-CD3 antibody (Tonbo Biosciences) to 3 × 10^5 cells/mL and seed in a 96-well plate or 24-well plate that pre-packaged 0.4 μg/well anti-CD28 antibody and 1.6 μg anti-CD28 antibody (24-well) (Tonbo Biosciences). Cells were then cultured for 3 days, 9 days or 12 days. Subsequently, the proportion of CD4^+ and CD8^+ cells was determined by flow cytometry (Beckman Coulter, FC500) according to manufacturer’s instruction of PE-Cyanine7 anti-Human CD8a and PE anti-Human CD4 antibodies (Tonbo Biosciences). Data analyzing was performed by using CXP software (Beckman Coulter, Supplementary Fig. 8).

[4] = Cancer donor 1, 3 day, S3-15 0.2
[5] = Cancer donor 1, 3 day, S3-15 10
[6] = Healthy donor 1, 3 day, S3-15 0.2
[7] = Healthy donor 1, 3 day, S3-15 1
[8] = Healthy donor 1, 3 day, S3-15 5
[9] = Healthy donor 1, 3 day, S3-15 10
[10] = Healthy donor 1, 12 day, S3-15 0.2
[11] = Healthy donor 1, 12 day, S3-15 1

SMILES: CC(=O)/C(=N\Nc1ccccc1C(=O)O)C(=O)Nc1ccccn1 [S3-15]
- sRANKL-OPG binding signal (fig. S4m) [1]: 0.6462 and 0.65 and 0.761
- sRANKL and OPG binding ([1]; 0.3 μM): cannot affects
- sRANKL-OPG binding signal (fig. S4m) ([1]; 0.3): 0.7746 and 0.9001 and 1.2775
- sRANKL and OPG binding ([1]; 10 and 1 μM): significantly suppressed
- CD3+, % in peripheral lymphocyte [2]: 36.27% and 37.35% and 37.5% and 36.96% and 36.85% and 38.5% and 35.97% and 34.6%
- CD3+CD4+, % in CD3+ T cell [2]: 61.95% and 60.18% and 56.07% and 64.9% and 64.44% and 61.9% and 58.71% and 64.19%
- CD3+CD4+, % in peripheral lymphocyte [2]: 22.2% and 22.32% and 20.69% and 23.69% and 23.71% and 23.61% and 23.29% and 21.4%
- CD3+CD8+, % in CD3+ T cell [2]: 30.94% and 33.61% and 35.99% and 30.67% and 29.41% and 32.61% and 35.04% and 29.24%
- CD3+CD8+, % in peripheral lymphocyte [2]: 11.41% and 12.7% and 13.52% and 11.4% and 10.94% and 12.69% and 10.21% and 10.64%
- CD4+, % in peripheral lymphocyte [2]: 22.3% and 22.29% and 20.64% and 23.66% and 23.37% and 23.65% and 23.23% and 21.42%
- CD8+, % in peripheral lymphocyte [2]: 11.28% and 12.51% and 13.34% and 11.29% and 10.72% and 12.52% and 9.72% and 10.53%
- CD4+/CD8+ in CD3+ T cell ([2]; ratio): 2.002 and 1.791 and 1.558 and 2.116 and 2.191 and 1.898 and 1.676 and 2.195
- CD4+/CD8+ in peripheral lymphocyte ([2]; ratio): 1.946 and 1.757 and 1.53 and 2.078 (2×) and 2.167 and 1.861 and 2.011
- CD8+ cells in total cells (%) [3, 4]: 14.3% and 18.21% and 16% and 17.82%
- CD8+cells in CFSE-cells (%) [3, 4]: 44.38% and 49.16% and 53.36% and 45.53%
- CFSE- cells in total cells (%) [3, 4]: 7.99% and 11.49% and 11.51% and 10.07%
- CD8+ cells in total cells (%) ([3]; Cancer donor 1, 3 day, S3-15 1): 15.56% and 19.33% and 22.39% and 19.99%
- CD8+cells in CFSE-cells (%) ([3]; Cancer donor 1, 3 day, S3-15 1): 49.17% and 50.09% and 56.77% and 50.35%
- CFSE- cells in total cells (%) ([3]; Cancer donor 1, 3 day, S3-15 1): 9.93% and 12.76% and 16.17% and 13.25%
- CD8+ cells in total cells (%) ([3]; Cancer donor 1, 3 day, S3-15 5): 18.34% and 20.27% and 20.25% and 13.63%
- CD8+cells in CFSE-cells (%) ([3]; Cancer donor 1, 3 day, S3-15 5): 56.42% and 54.7% and 55.11% and 51.68%
- CFSE- cells in total cells (%) ([3]; Cancer donor 1, 3 day, S3-15 5): 12.69% and 14.11% and 13.95% and 8.72%
- CD8+ cells in total cells (%) [3, 5]: 19.25% and 18.44% and 17.07% and 14.93%
- CD8+cells in CFSE-cells (%) [3, 5]: 49.18% and 47.91% and 49.38% and 44.39%
- CFSE- cells in total cells (%) [3, 5]: 12.56% and 11.54% and 10.9% and 9.12%
- CD4+cells in total cells (%) [3, 6]: 68.58% and 70.02% and 62.64% and 62.46%
- CD8+ cells in total cells (%) [3, 6]: 18.64% and 19.25% and 16.01% and 13.6%
- CD8+cells in CFSE-cells (%) [3, 6]: 20.07% and 33.28% and 21.3% and 26.99%
- CFSE- cells in total cells (%) [3, 6]: 25.93% and 25.33% and 20.8% and 18.33%
- CD4+cells in total cells (%) [3, 7]: 63.51% and 67.38% and 70.68% and 68.88%
- CD8+ cells in total cells (%) [3, 7]: 12.65% and 15.35% and 17.94% and 14.88%
- CFSE- cells in total cells (%) [3, 7]: 21.49% and 20.46% and 25.21% and 18.85%
- CD4+cells in total cells (%) [3, 8]: 68.14% and 68.06% and 70.19% and 66.42%
- CD8+ cells in total cells (%) [3, 8]: 12.78% and 16.22% and 14.24% and 15.07%
- CD8+cells in CFSE-cells (%) [3, 8]: 16% and 25.32% and 17.12% and 15.1%
- CFSE- cells in total cells (%) [3, 8]: 22.52% and 22.58% and 17.52% and 21.09%
- CD4+cells in total cells (%) [3, 9]: 72.21% and 54.01% and 61.69% and 61.53%
- CD8+ cells in total cells (%) [3, 9]: 17.68% and 18.86% and 15.27% and 10.99%
- CD8+cells in CFSE-cells (%) [3, 9]: 13.48% and 20.77% and 16.03%
- CFSE- cells in total cells (%) [3, 9]: 22.22% and 20.93% and 15.94%
- CD4+cells in total cells (%) [3, 10]: 25.25% and 26.11% and 25.81% and 23.7%
- CD8+ cells in total cells (%) [3, 10]: 16% and 15.3% and 20.01% and 21.66%
- CD8+cells in CFSE-cells (%) [3, 10]: 74.91% and 72.37% and 73.55% and 71.27%
- CFSE- cells in total cells (%) [3, 10]: 16.3% and 15.37% and 18.72% and 19.27%
- CD4+cells in total cells (%) [3, 11]: 25.53% and 24.4% and 24.71% and 25.6%
- CD8+ cells in total cells (%) [3, 11]: 15.74% and 17.31% and 17.44% and 15.99%
